What all share (assay): NCI-60 cell line screen, 48 h
Test [1] deals with CCRF-CEM.
Test [2] deals with SNB-19.
Test [3] deals with K562.
Test [4] has as its system KM12.
Test [5] deals with HL-60.
The test system of test [6] is OVCAR-4.
Test [7] has as its system SK-OV-3.
In test [8] the test system is A498.
The subject of test [9] is T47D.
In test [10] the test system is MDA-MB-435.
Test [11] concerns NCI-H226.
Test [12] concerns M14.
The test system of test [13] is ACHN.
Test [14] deals with Hs-578T.
Test [15] has as its system HOP-62.
The test system of test [16] is UACC-257.
Test [17] deals with NCI-H522.
Test [18] deals with HCC 2998.
For test [19], the system named is SW-620.

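Assay format: 96-well plates, 48-hour exposure. The concentration for 50% growth inhibition is given as GI50.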 Active and inactive are the calls of the source. Rule as the data show it: active = GI50 up to about 1.1 µM and inactive = higher. A value given as a limit tells only on which side of the number the result lay.

Take `C=C1OC2OC(C)C(NC(=O)OCC(Cl)(Cl)Cl)C(OC(C)=O)C2O1` (stereo not given): the GI50 in test [1], in test [2], in test [3], in test [4], in [5] and in test [6] was > 100 µM (inactive) in each case. The GI50 in test [7] is > 100 µM (inactive); in test [8], > 100 µM (inactive); in test [9], > 100 µM (inactive); in test [10], > 100 µM (inactive); in test [11], 43.6 µM (inactive); in test [12], > 100 µM (inactive). In addition, the GI50 in test [13], in test [14], in test [15], in [16], in test [17] and in test [18] was > 100 µM (inactive) each time. Besides, in test [19], the GI50 is > 100 µM (inactive).
For `O=C(O)c1cc2ccc3ccccc3c2oc1=O`, the GI50 in test [1], in [2], in test [3], in [4], in test [5] and in test [6] was > 100 µM (inactive) throughout. Moreover, the GI50 in test [7] is > 100 µM (inactive); in [8], 54.2 µM (inactive); in test [9] it was > 100 µM (inactive); in [10], > 100 µM (inactive); in test [11] it was > 100 µM (inactive); in test [12], > 100 µM (inactive). Also, the GI50 in [13], in test [14], in test [15], in [16], in test [17] and in [18] was > 100 µM (inactive) throughout. Moreover, the GI50 in test [19] was > 100 µM (inactive).
For the molecule `[N-]=[N+]=Nc1ccc2c(c1)Sc1ccccc1N2CCCCN1CCN(Cc2ccc(C(=O)c3ccccc3)cc2)CC1`, the GI50 is 5.97 µM (inactive) in test [1]; > 100 µM (inactive) in test [2]; 3.23 µM (inactive) in [3]; 3.01 µM (inactive) in [4]; 2.47 µM (inactive) in test [5]; 4.6 µM (inactive) in [6]. The GI50 was > 100 µM (inactive) in test [7]; 17.4 µM (inactive) in test [8]; 3.39 µM (inactive) in test [9]; 4.92 µM (inactive) in test [10]; 20.4 µM (inactive) in test [11]; 2 µM (inactive) in test [12]. For the same molecule, the GI50 in test [13] was 6.46 µM (inactive); in test [14], 16.3 µM (inactive); in test [15] it was > 38.9 µM (inactive); in test [16], 2.04 µM (inactive); in test [17] it was 1.85 µM (inactive); in test [18] it was 2.13 µM (inactive). For the same molecule, the GI50 in test [19] is 6.22 µM (inactive).
With `COC(=O)c1ccccc1C1CN=NC12Cc1ccc3c(c1C2=O)CCC3` (stereo not given), the GI50 is 19.3 µM (inactive) in test [1]; 65 µM (inactive) in test [2]; 7.23 µM (inactive) in test [3]; 42.1 µM (inactive) in test [4]; 19.6 µM (inactive) in test [5]; > 100 µM (inactive) in test [6]. The GI50 in [7] was 49.4 µM (inactive); in test [8], 55.2 µM (inactive); in [9], 19.2 µM (inactive); in test [10] it was > 100 µM (inactive); in test [11], 55.1 µM (inactive); in test [12], > 100 µM (inactive). Besides, the GI50 in [13] is 50.4 µM (inactive); in test [14] it was 74.3 µM (inactive); in [15], > 100 µM (inactive); in test [16], 44.1 µM (inactive); in test [17], 6.55 µM (inactive); in test [18], > 100 µM (inactive). Further, the GI50 in test [19] was > 100 µM (inactive).
Take `COc1cc(S(=O)(=O)Nc2ccc(-c3csc(N4C(=O)CSC4c4ccccc4)n3)cc2)ccc1Cl` (stereo not given): the GI50 in [1] was 34.2 µM (inactive); in test [2], 13.7 µM (inactive); in [3], 39.7 µM (inactive); in test [4], 30.5 µM (inactive); in test [5], 20.8 µM (inactive); in test [6], 29.9 µM (inactive). Besides, the GI50 in test [7] was > 100 µM (inactive); in [8], 0.116 µM (active); in test [9], 16.3 µM (inactive); in test [10] it was 43.1 µM (inactive); in test [11], 94.4 µM (inactive); in test [12], 43.8 µM (inactive). Moreover, the GI50 in [13] was 15.2 µM (inactive); in test [14], 55.6 µM (inactive); in [15], 81.8 µM (inactive); in [16], 40.9 µM (inactive); in test [17] it was 34.4 µM (inactive); in [18], 20.4 µM (inactive). Further, the GI50 in test [19] is 42.4 µM (inactive).
On to `NC1=Nc2cc(Cl)ccc2Sc2nc3ccccc3n21`, for which the GI50 in test [1] is 1.22 µM (inactive); in [2], 22.2 µM (inactive); in test [3], 3.47 µM (inactive); in test [4] it was > 100 µM (inactive); in [5] it was 2.39 µM (inactive); in test [6], > 20.8 µM (inactive). Further, the GI50 in test [7] was > 100 µM (inactive); in test [8], > 100 µM (inactive); in test [9], > 33.8 µM (inactive); in [10], > 100 µM (inactive); in test [11] it was 2.86 µM (inactive); in test [12], 2.52 µM (inactive). Further, the GI50 was > 100 µM (inactive) in [13]; > 72.3 µM (inactive) in test [14]; > 86.3 µM (inactive) in test [15]; 5.83 µM (inactive) in test [16]; 3.92 µM (inactive) in [17]; > 100 µM (inactive) in test [18]. Further, the GI50 in test [19] is > 86.3 µM (inactive).
In the case of `CC1OC2=N[C@@H]1C(=O)N[C@@H](C(C)C)C1=N[C@H](C(=O)N[C@@H](C(C)C)C3=N[C@H](C(=O)N[C@@H](C(C)C)C4=N[C@H](C(=O)N[C@H]2C(C)C)C(C)O4)C(C)O3)C(C)O1` (stereo not given in full), the GI50 in [1], in [2], in [3], in test [4], in test [5] and in test [6] was > 10 µM (inactive) in each case. Moreover, the GI50 in test [7], in [8], in [9], in test [10], in [11] and in test [12] was > 10 µM (inactive) in each case. The GI50 in test [13], in test [14], in [15], in test [16], in [17] and in test [18] was > 10 µM (inactive) each time. The GI50 in test [19] was > 10 µM (inactive).
Turning to `CN(C)CCCC1c2ccccc2Oc2ccc(C(F)(F)F)cc21` (stereo not given), the GI50 in [1] was 9.42 µM (inactive); in [2], 16.7 µM (inactive); in [3], 5.9 µM (inactive); in test [4], 14.2 µM (inactive); in test [5], 12.1 µM (inactive); in [6], 14.5 µM (inactive). Moreover, the GI50 in [7] is 16.8 µM (inactive); in test [8], 10.8 µM (inactive); in test [9], 14.6 µM (inactive); in [10], 6.64 µM (inactive); in [11] it was 8.2 µM (inactive); in test [12], 5.75 µM (inactive). Also, the GI50 is 16.7 µM (inactive) in test [13]; 14.5 µM (inactive) in test [14]; 16.5 µM (inactive) in [15]; 11.6 µM (inactive) in [16]; 14.3 µM (inactive) in test [17]; 1.63 µM (inactive) in test [18]. Further, in [19], the GI50 was 15.4 µM (inactive).
`N=C(N)NCCN1CCCCCc2ccccc21`: the GI50 in [1], in test [2], in [3], in test [4], in [5] and in test [6] was > 10 µM (inactive) throughout. For the same molecule, the GI50 in test [7], in [8], in [9], in test [10], in test [11] and in test [12] was > 10 µM (inactive) each time. Also, the GI50 in test [13] was > 10 µM (inactive); in [14], 8.05 µM (inactive); in [15], > 10 µM (inactive); in test [16], > 10 µM (inactive); in [17] it was > 10 µM (inactive); in test [18], > 10 µM (inactive). Also, in test [19], the GI50 was > 10 µM (inactive).
Take `Brc1cccc(Nc2nc(-c3cccs3)nc3ccc(Br)cc23)c1`: the GI50 is 1.51 µM (inactive) in test [1]; 31.1 µM (inactive) in test [2]; 38.2 µM (inactive) in test [3]; 18 µM (inactive) in test [4]; 1.28 µM (inactive) in test [5]; 27.8 µM (inactive) in [6]. The GI50 in test [7] is > 100 µM (inactive); in test [8], 31.7 µM (inactive); in test [9], 9.89 µM (inactive); in test [10], 16.6 µM (inactive); in [11] it was 31.4 µM (inactive); in test [12] it was 25.5 µM (inactive). The GI50 in [13] is 27.7 µM (inactive); in test [14], 38.8 µM (inactive); in test [15] it was 32.1 µM (inactive); in test [16], 26.6 µM (inactive); in test [17], 19 µM (inactive); in test [18] it was 20.2 µM (inactive). Moreover, the GI50 in test [19] is 26.9 µM (inactive).
